Experiment in all cases: NCI-60 cell line screen, 48 h
The test system of test [1] is OVCAR-8 ovarian.
Test [2] has as its system SF-539 CNS.
Test [3] relates to UACC-62 melanoma.
For test [4], the system named is T-47D breast.
Test [5] concerns SW-620 colon.
Test [6] has as its system K-562 leukemia.
Test [7] deals with NCI-H522 lung.
Test [8] deals with 786-0 renal.
Test [9] deals with EKVX NSCLC.
Test [10] relates to PC-3 prostate.
Test [11] concerns SN12C renal.
The test system of test [12] is A549 NSCLC.
Test [13] deals with COLO 205 colon.
The test system of test [14] is SNB-19 CNS.
In test [15] the test system is UO-31 renal.

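The compound was tested at five concentrations on cells cultured in 96-well plates, with a 48-hour exposure period. Abbreviation: GI50, concentration required for 50% inhibition of growth. At the TGI there is no net growth.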 A value given as a limit tells only on which side of the number the result lay.

As for `CNc1cccc2c1C(C)C[C@]1(C)C(=O)Nc3ccccc3[C@H]21` (stereo partly specified), the TGI in test [1] is 39.1 µM; in test [2], above 100 µM; in test [3], above 100 µM; in test [4], above 100 µM; in test [5] it was above 100 µM; in test [6], above 100 µM. Also, the TGI in test [7] is 89 µM; in [8] it was 32.9 µM; in test [9], above 100 µM; in test [10], 74.5 µM; in [11], 48.5 µM; in test [12] it was 38.6 µM. The TGI was above 100 µM in test [13], 54 µM in [14] and 52.4 µM in test [15].
With `O=c1cc(-c2ccc3ccccc3c2)[nH]c2ncccc12`, the TGI in [1] was above 100 µM; in test [2], 64.9 µM; in test [3] it was above 100 µM; in test [4] it was above 100 µM; in [5] it was above 100 µM; in [6] it was 12 µM. Further, the TGI in test [7] was 46 µM; in test [8], above 100 µM; in test [9], above 100 µM; in test [10] it was above 100 µM; in test [11], above 100 µM; in test [12], above 100 µM. The TGI in [13], in [14] and in test [15] was above 100 µM each time. Moreover, the GI50 in test [10] is 10.4 µM.
Regarding `COc1cc(OC)c2nc(C)c3c(c2c1)OCC3`, the TGI in test [1], in test [2], in test [3], in test [4], in test [5] and in test [6] was above 100 µM in each case. In addition, the TGI in test [7], in test [8], in [9], in test [10], in test [11] and in [12] was above 100 µM throughout. The TGI in [13], in test [14] and in [15] was above 100 µM in each case.
Regarding `O=C1OC(C2Cc3ccc4c(c3C2=O)CCCC4)c2ccccc21` (stereo unspecified), the TGI was above 100 µM in test [1]; 66.7 µM in [2]; 69.9 µM in test [3]; above 100 µM in test [4]; above 100 µM in test [5]; above 100 µM in test [6]. Also, the TGI in [7], in test [8], in test [9], in [10], in test [11] and in test [12] was above 100 µM in each case. Moreover, the TGI in [13], in test [14] and in test [15] was above 100 µM each time.
Turning to `COC1=CC(=O)c2c(n[nH]c2CCNC(=O)OCc2ccccc2)C1=O`, the TGI in [1] was 44.3 µM; in test [2] it was 34.1 µM; in test [3] it was 19.9 µM; in test [4] it was 18.3 µM; in test [5], 36.8 µM; in test [6], 44.9 µM. The TGI in test [7] is 21.1 µM; in [8] it was 31.3 µM; in [9] it was 32 µM; in [10], above 100 µM; in test [11], 30.1 µM; in test [12], 40.4 µM. Further, the TGI worked out at 33.9 µM in test [13], 39.8 µM in [14] and 28.8 µM in [15].
For `COc1cc(/C=C2\C(=O)N(c3ccc(NC(C)=O)cc3)C(c3ccccc3)S2(=O)=O)cc(OC)c1OC` (stereo unspecified), the TGI in test [1], in test [2], in [3], in [4], in test [5] and in test [6] was above 100 µM throughout. The TGI in test [7], in test [8], in [9], in test [10], in [11] and in test [12] was above 100 µM each time. The TGI in [13], in test [14] and in [15] was above 100 µM each time.
Consider `N#Cc1nc(-c2ccc(-c3nc(C#N)c(N)o3)cc2)oc1N`, for which the TGI in test [1], in [2], in test [3], in test [4], in test [5] and in [6] was above 10 µM throughout. Also, the TGI in [7], in test [8], in test [9], in test [10], in test [11] and in test [12] was above 10 µM throughout. In addition, the TGI in test [13], in test [14] and in [15] was above 10 µM in each case.
As to `COC(=O)C1Cc2c([nH]c3ccccc23)-c2[nH]c3ccccc3c2CC(NC(C)=O)C(=O)NCC(=O)NCC(=O)N1` (stereo unspecified), the TGI in test [1], in test [2], in test [3], in test [4], in test [5] and in test [6] was above 100 µM each time. The TGI in test [7], in test [8], in test [9], in test [10], in test [11] and in test [12] was above 100 µM in each case. In addition, the TGI in test [13], in test [14] and in test [15] was above 100 µM each time.
Turning to `CN(C)c1cccc(/C=C(\C#N)c2ccccc2)c1`, the TGI in test [1] was 40 µM; in [2], 4.32 µM; in test [3], above 100 µM; in test [4] it was 86.5 µM; in test [5], above 56 µM; in test [6], above 14.4 µM. Besides, the TGI was 5.75 µM in test [7]; above 60.9 µM in test [8]; above 100 µM in test [9]; above 100 µM in test [10]; above 100 µM in test [11]; above 79.9 µM in [12]. For the same molecule, the values for the TGI in [13], in test [14] and in [15] were 5.41 µM, above 53.8 µM and above 100 µM, respectively.
Turning to `COc1ccc(OC2OC(CO)C(O)C(O)C2O)cc1` (stereo unspecified), the TGI in test [1], in [2], in test [3], in test [4], in [5] and in [6] was above 100 µM in each case. Further, the TGI in [7], in test [8], in [9], in test [10], in [11] and in test [12] was above 100 µM throughout. Further, the TGI in test [13], in [14] and in test [15] was above 100 µM each time.
Consider `CC1(Cc2cc3c(cc2C2(c4ccc([N+](=O)[O-])cc4)OCCO2)OCO3)OCCO1`, for which the TGI in test [1], in test [2], in test [3], in test [4], in test [5] and in [6] was above 100 µM throughout. Further, the TGI in test [7] is 82.3 µM; in test [8], above 100 µM; in test [9], above 100 µM; in [10] it was above 100 µM; in test [11] it was above 100 µM; in test [12], above 100 µM. The TGI in test [13], in [14] and in test [15] was above 100 µM each time.
On to `COC(=O)C1=C(C(=O)OC)C(OO)(c2ccccc2)OC1=O` (stereo unspecified), for which the TGI in [1], in [2], in [3], in [4], in [5] and in [6] was above 100 µM in each case. The TGI in test [7], in test [8], in test [9], in test [10], in test [11] and in test [12] was above 100 µM each time. Moreover, the TGI in test [13], in test [14] and in test [15] was above 100 µM in each case.
Take `CC(CC(C)[C@H]1CCC2[C@H]3C(CC(=O)[C@@]21C)[C@@]1(C)CCC(O)C[C@H]1C[C@@H]3O)C(=O)O` (stereo partly specified): the TGI in [1], in [2], in [3], in test [4], in test [5] and in test [6] was above 100 µM in each case. In addition, the TGI in test [7], in [8], in [9], in test [10], in test [11] and in [12] was above 100 µM in each case. In addition, the TGI in test [13], in test [14] and in test [15] was above 100 µM in each case.
Consider `O=C1Nc2ccccc2/C1=N/N1C(=O)/C(=C/c2ccccc2S)N=C1c1ccccc1`, for which the TGI in test [1] is above 100 µM; in [2], above 100 µM; in test [3], above 100 µM; in test [4], 81.8 µM; in [5], above 100 µM; in [6], above 100 µM. Also, the TGI in test [7], in test [8], in test [9], in test [10], in test [11] and in [12] was above 100 µM throughout. Moreover, the TGI in test [13], in [14] and in test [15] was above 100 µM in each case.

The values are drawn from PubChem BioAssay (NCI).
